# The kinase profiling compilation of Christmann-Franck et al. (2016)
# Columns and labels:
# PIK3CG (human) = PIK3CG (human) (UniProt P48736); assay: KINOMEscan competition binding; conditions: compound 10.0 µM
# RPS6KA2 KD2 (human) = RPS6KA2 KD2 (human) (UniProt Q15349); assay: KINOMEscan competition binding; conditions: compound 10.0 µM
# CLK2 (human) = CLK2 (human) (UniProt P49760); assay: KINOMEscan competition binding; conditions: compound 10.0 µM
# TAOK3 (human) = TAOK3 (human) (UniProt Q9H2K8); assay: KINOMEscan competition binding; conditions: compound 10.0 µM
# Sequence of TAOK3 (human) (Q9H2K8 whole entry, looked up): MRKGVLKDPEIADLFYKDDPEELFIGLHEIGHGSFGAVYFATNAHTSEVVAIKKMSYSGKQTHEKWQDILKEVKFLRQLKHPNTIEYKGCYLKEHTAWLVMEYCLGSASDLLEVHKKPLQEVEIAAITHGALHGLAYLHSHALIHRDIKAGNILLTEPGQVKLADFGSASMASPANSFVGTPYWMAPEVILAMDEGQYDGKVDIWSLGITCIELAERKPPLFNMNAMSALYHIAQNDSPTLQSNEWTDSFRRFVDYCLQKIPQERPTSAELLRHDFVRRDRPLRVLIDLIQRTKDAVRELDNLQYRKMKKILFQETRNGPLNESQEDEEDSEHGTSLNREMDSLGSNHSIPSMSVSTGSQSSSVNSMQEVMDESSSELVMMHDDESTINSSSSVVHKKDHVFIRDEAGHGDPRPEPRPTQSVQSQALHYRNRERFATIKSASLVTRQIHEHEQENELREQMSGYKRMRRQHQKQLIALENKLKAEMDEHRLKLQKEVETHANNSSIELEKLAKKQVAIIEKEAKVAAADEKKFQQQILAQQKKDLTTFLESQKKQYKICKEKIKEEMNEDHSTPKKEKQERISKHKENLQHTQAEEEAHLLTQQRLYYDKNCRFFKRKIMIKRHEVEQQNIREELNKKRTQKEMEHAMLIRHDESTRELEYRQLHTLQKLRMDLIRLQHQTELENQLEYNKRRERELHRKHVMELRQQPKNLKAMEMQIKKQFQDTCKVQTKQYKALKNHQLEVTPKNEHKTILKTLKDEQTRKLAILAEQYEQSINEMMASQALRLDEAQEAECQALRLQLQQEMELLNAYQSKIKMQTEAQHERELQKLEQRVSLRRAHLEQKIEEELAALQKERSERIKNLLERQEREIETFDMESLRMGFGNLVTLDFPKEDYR
# GAK (human) = GAK (human) (UniProt O14976); assay: KINOMEscan competition binding; conditions: compound 10.0 µM
# PIM2 (human) [1] = target: PIM2 (human) (UniProt Q9P1W9); assay: KINOMEscan competition binding; conditions: compound 10.0 µM
# Sequence of PIM2 (human) (Q9P1W9 whole entry, looked up): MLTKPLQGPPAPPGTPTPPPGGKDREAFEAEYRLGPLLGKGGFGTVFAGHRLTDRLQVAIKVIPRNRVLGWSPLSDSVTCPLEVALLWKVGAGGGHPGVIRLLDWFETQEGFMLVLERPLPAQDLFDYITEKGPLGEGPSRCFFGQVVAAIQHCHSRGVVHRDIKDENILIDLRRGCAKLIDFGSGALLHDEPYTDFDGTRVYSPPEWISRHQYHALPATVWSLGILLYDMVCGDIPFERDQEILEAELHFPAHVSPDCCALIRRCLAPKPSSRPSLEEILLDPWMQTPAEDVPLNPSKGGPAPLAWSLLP
# STK17A (human) = STK17A (human) (UniProt Q9UEE5); assay: KINOMEscan competition binding; conditions: compound 10.0 µM
# RPS6KA4 KD2 (human) = RPS6KA4 KD2 (human) (UniProt O75676); assay: KINOMEscan competition binding; conditions: compound 10.0 µM
# CDK16 (human) = CDK16 (human) (UniProt Q00536); assay: KINOMEscan competition binding; conditions: compound 10.0 µM
# Sequence of CDK16 (human) (Q00536 whole entry, looked up): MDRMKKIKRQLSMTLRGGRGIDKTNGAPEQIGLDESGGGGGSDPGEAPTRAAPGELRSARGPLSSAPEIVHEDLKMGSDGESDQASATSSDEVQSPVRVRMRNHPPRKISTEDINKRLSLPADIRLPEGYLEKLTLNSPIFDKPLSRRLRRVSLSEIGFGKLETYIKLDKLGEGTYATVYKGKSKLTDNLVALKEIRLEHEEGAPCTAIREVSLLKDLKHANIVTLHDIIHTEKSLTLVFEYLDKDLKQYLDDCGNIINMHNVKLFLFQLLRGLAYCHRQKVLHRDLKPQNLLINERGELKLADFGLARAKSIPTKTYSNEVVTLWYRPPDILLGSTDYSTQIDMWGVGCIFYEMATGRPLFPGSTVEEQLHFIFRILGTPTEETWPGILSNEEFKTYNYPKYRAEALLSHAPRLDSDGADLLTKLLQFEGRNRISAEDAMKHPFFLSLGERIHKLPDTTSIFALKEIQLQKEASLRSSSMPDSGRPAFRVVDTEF
# MKNK2 (human) = MKNK2 (human) (UniProt Q9HBH9); assay: KINOMEscan competition binding; conditions: compound 10.0 µM
# DAPK1 (human) = DAPK1 (human) (UniProt P53355); assay: KINOMEscan competition binding; conditions: compound 10.0 µM
# PIM3 (human) = PIM3 (human) (UniProt Q86V86); assay: KINOMEscan competition binding; conditions: compound 10.0 µM
# PLK4 (human) = PLK4 (human) (UniProt O00444); assay: KINOMEscan competition binding; conditions: compound 10.0 µM
# BMPR1B (human) = BMPR1B (human) (UniProt O00238); assay: KINOMEscan competition binding; conditions: compound 10.0 µM
# TAOK1 (human) = TAOK1 (human) (UniProt Q7L7X3); assay: KINOMEscan competition binding; conditions: compound 10.0 µM
# MYLK (human) = MYLK (human) (UniProt Q15746); assay: KINOMEscan competition binding; conditions: compound 10.0 µM
# STK17B (human) = STK17B (human) (UniProt O94768); assay: KINOMEscan competition binding; conditions: compound 10.0 µM
# AAK1 (human) = AAK1 (human) (UniProt Q2M2I8); assay: KINOMEscan competition binding; conditions: compound 10.0 µM
# [2] = target: JAK1 JH2 pseudokinase (human) (UniProt P23458); assay: KINOMEscan competition binding; conditions: compound 10.0 µM
# STK24 (human) = STK24 (human) (UniProt Q9Y6E0); assay: KINOMEscan competition binding; conditions: compound 10.0 µM
# TLK1 (human) = TLK1 (human) (UniProt Q9UKI8); assay: KINOMEscan competition binding; conditions: compound 10.0 µM
# Sequence of TLK1 (human) (Q9UKI8 whole entry, looked up): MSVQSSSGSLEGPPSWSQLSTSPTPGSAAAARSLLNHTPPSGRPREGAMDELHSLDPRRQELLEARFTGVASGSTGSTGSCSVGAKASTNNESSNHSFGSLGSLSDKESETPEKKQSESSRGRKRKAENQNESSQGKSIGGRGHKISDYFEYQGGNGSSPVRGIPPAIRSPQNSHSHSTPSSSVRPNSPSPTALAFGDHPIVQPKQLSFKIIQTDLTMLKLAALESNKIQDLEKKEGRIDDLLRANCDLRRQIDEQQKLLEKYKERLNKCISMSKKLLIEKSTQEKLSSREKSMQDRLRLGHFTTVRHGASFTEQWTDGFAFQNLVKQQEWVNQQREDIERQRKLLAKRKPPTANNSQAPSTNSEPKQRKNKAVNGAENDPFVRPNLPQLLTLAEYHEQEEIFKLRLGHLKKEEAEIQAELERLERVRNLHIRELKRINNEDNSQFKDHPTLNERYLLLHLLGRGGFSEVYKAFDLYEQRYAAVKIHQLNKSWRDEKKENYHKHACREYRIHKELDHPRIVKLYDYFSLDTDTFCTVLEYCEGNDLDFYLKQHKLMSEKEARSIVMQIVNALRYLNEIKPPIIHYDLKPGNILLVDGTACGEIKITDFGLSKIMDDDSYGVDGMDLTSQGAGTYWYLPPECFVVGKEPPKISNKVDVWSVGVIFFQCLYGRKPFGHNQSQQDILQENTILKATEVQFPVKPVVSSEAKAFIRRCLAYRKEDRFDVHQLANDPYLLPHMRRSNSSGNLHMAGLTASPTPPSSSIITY
# CLK3 (human) = CLK3 (human) (UniProt P49761); assay: KINOMEscan competition binding; conditions: compound 10.0 µM
# HIPK1 (human) = HIPK1 (human) (UniProt Q86Z02); assay: KINOMEscan competition binding; conditions: compound 10.0 µM
# RPS6KA1 KD2 (human) = RPS6KA1 KD2 (human) (UniProt Q15418); assay: KINOMEscan competition binding; conditions: compound 10.0 µM
# CAMKK1 (human) = CAMKK1 (human) (UniProt Q8N5S9); assay: KINOMEscan competition binding; conditions: compound 10.0 µM
# MAPKAPK5 (human) = MAPKAPK5 (human) (UniProt Q8IW41); assay: KINOMEscan competition binding; conditions: compound 10.0 µM
# MAP3K7 (human) = MAP3K7 (human) (UniProt O43318); assay: KINOMEscan competition binding; conditions: compound 10.0 µM
# RPS6KA6 KD2 (human) = RPS6KA6 KD2 (human) (UniProt Q9UK32); assay: KINOMEscan competition binding; conditions: compound 10.0 µM
# Sequence of RPS6KA6 KD2 (human) (Q9UK32 whole entry, looked up): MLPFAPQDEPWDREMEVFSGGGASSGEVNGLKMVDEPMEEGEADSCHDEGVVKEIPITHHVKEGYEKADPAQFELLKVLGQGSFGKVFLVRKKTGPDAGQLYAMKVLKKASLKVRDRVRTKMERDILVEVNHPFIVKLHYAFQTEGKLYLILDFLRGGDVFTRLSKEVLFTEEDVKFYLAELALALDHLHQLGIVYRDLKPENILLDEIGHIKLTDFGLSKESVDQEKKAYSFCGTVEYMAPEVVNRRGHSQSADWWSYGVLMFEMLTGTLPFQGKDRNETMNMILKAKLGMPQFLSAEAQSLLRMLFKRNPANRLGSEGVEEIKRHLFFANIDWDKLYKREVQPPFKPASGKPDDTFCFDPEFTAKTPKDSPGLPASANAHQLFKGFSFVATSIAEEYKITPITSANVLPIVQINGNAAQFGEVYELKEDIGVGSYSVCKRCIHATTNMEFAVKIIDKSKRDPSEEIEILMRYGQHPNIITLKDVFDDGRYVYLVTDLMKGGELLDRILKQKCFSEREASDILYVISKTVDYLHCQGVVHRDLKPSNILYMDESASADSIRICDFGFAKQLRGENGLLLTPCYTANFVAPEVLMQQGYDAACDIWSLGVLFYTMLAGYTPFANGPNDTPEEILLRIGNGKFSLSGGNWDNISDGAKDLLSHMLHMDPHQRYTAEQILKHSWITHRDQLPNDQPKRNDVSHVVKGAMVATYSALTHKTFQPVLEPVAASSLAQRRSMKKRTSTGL
# PIP4K2B (human) = PIP4K2B (human) (UniProt P78356); assay: KINOMEscan competition binding; conditions: compound 10.0 µM
# CLK4 (human) = CLK4 (human) (UniProt Q9HAZ1); assay: KINOMEscan competition binding; conditions: compound 10.0 µM
# MAPK15 (human) = MAPK15 (human) (UniProt Q8TD08); assay: KINOMEscan competition binding; conditions: compound 10.0 µM
# Sequence of MAPK15 (human) (Q8TD08 whole entry, looked up): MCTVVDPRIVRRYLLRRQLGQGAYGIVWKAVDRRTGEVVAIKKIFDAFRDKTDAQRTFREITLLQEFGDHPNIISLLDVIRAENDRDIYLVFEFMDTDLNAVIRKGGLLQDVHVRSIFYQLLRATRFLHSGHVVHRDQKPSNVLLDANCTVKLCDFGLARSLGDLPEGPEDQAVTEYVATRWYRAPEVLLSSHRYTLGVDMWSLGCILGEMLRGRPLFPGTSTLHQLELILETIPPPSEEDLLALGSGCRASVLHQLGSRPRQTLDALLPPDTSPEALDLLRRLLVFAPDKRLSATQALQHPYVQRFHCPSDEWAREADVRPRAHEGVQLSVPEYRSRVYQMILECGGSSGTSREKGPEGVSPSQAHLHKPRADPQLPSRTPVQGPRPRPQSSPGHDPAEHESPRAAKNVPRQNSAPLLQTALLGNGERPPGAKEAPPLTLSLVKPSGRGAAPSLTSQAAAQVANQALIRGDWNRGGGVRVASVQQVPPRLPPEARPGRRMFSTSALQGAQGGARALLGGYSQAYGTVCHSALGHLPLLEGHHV
# CDK7 (human) = CDK7 (human) (UniProt P50613); assay: KINOMEscan competition binding; conditions: compound 10.0 µM
# RIPK4 (human) = RIPK4 (human) (UniProt P57078); assay: KINOMEscan competition binding; conditions: compound 10.0 µM
# CLK1 (human) = CLK1 (human) (UniProt P49759); assay: KINOMEscan competition binding; conditions: compound 10.0 µM
# CSNK2A1 (human) = CSNK2A1 (human) (UniProt P68400); assay: KINOMEscan competition binding; conditions: compound 10.0 µM
# Sequence of CSNK2A1 (human) (P68400 whole entry, looked up): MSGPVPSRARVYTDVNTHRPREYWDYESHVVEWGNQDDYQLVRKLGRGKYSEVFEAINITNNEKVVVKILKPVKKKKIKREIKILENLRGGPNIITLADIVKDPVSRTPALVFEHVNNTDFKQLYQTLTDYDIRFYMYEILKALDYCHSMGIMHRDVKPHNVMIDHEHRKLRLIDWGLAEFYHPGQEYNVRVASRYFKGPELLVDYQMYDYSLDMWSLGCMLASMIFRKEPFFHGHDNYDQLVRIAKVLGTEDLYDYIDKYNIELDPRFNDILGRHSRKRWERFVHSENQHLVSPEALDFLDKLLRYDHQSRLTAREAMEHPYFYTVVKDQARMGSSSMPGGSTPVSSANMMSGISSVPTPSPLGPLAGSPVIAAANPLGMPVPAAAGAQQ
# DAPK2 (human) = DAPK2 (human) (UniProt Q9UIK4); assay: KINOMEscan competition binding; conditions: compound 10.0 µM
# PIM1 (human) [3] = target: PIM1 (human) (UniProt P11309); assay: KINOMEscan competition binding; conditions: compound 10.0 µM
# Sequence of PIM1 (human) (P11309 whole entry, looked up): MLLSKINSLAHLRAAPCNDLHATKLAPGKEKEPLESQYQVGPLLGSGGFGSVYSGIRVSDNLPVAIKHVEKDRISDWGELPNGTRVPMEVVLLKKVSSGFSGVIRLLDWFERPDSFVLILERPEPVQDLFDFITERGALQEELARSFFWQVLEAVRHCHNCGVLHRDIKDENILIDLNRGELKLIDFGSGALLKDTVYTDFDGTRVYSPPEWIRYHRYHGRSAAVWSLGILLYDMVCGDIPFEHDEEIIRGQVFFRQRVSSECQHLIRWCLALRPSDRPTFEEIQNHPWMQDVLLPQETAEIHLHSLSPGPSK
# CSNK2A2 (human) = CSNK2A2 (human) (UniProt P19784); assay: KINOMEscan competition binding; conditions: compound 10.0 µM
# RIOK2 (human) = RIOK2 (human) (UniProt Q9BVS4); assay: KINOMEscan competition binding; conditions: compound 10.0 µM
# MAP2K2 (human) = MAP2K2 (human) (UniProt P36507); assay: KINOMEscan competition binding; conditions: compound 10.0 µM
# MAP2K3 (human) = MAP2K3 (human) (UniProt P46734); assay: KINOMEscan competition binding; conditions: compound 10.0 µM
# DAPK3 (human) = DAPK3 (human) (UniProt O43293); assay: KINOMEscan competition binding; conditions: compound 10.0 µM
# Sequence of DAPK3 (human) (O43293 whole entry, looked up): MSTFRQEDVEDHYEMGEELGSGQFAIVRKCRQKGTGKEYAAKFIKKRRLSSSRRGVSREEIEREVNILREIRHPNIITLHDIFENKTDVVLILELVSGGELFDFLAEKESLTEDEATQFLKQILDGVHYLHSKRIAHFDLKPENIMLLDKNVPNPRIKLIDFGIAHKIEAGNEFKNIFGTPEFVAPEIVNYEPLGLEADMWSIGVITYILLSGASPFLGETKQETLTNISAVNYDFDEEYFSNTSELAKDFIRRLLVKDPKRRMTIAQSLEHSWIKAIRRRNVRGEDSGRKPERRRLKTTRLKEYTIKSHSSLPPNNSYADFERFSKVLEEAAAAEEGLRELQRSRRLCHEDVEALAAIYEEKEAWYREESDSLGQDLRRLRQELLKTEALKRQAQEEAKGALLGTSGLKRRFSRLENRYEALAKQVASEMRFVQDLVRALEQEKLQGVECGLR
# [4] = target: TYK2 JH2 pseudokinase (human) (UniProt P29597); assay: KINOMEscan competition binding; conditions: compound 10.0 µM
# MYLK3 (human) = MYLK3 (human) (UniProt Q32MK0); assay: KINOMEscan competition binding; conditions: compound 10.0 µM
# ROCK2 (human) = ROCK2 (human) (UniProt O75116); assay: KINOMEscan competition binding; conditions: compound 10.0 µM
# PIM2 (human) [5] = target: PIM2 (human) (UniProt Q9P1W9); assay: SelectScreen, TR FRET
# PIM1 (human) [6] = target: PIM1 (human) (UniProt P11309); assay: SelectScreen, TR FRET
smiles,measurement,setting,value
N=C1NC(=O)/C(=C/c2ccc(-c3ccc(C(=O)Nc4ccc(N5CCNCC5)cc4)cc3O)o2)S1,"kinase still bound, per cent of control",PIK3CG (human),2.1%
same,"kinase still bound, per cent of control",RPS6KA2 KD2 (human),25%
same,"kinase still bound, per cent of control",CLK2 (human),2%
same,"kinase still bound, per cent of control",TAOK3 (human),7.4%
same,"kinase still bound, per cent of control",GAK (human),29%
same,"kinase still bound, per cent of control",PIM2 (human) [1],0.5%
same,"kinase still bound, per cent of control",STK17A (human),0.1%
same,"kinase still bound, per cent of control",RPS6KA4 KD2 (human),3.4%
same,"kinase still bound, per cent of control",CDK16 (human),18%
same,"kinase still bound, per cent of control",MKNK2 (human),27%
same,"kinase still bound, per cent of control",DAPK1 (human),12%
same,"kinase still bound, per cent of control",PIM3 (human),9%
same,"kinase still bound, per cent of control",PLK4 (human),23%
same,"kinase still bound, per cent of control",BMPR1B (human),19%
same,"kinase still bound, per cent of control",TAOK1 (human),5.4%
same,"kinase still bound, per cent of control",MYLK (human),32%
same,"kinase still bound, per cent of control",STK17B (human),0.6%
same,"kinase still bound, per cent of control",AAK1 (human),31%
same,"kinase still bound, per cent of control",[2],26%
same,"kinase still bound, per cent of control",STK24 (human),25%
same,"kinase still bound, per cent of control",TLK1 (human),14%
same,"kinase still bound, per cent of control",CLK3 (human),25%
same,"kinase still bound, per cent of control",HIPK1 (human),0.65%
same,"kinase still bound, per cent of control",RPS6KA1 KD2 (human),21%
same,"kinase still bound, per cent of control",CAMKK1 (human),32%
same,"kinase still bound, per cent of control",MAPKAPK5 (human),32%
same,"kinase still bound, per cent of control",MAP3K7 (human),8.6%
same,"kinase still bound, per cent of control",RPS6KA6 KD2 (human),27%
same,"kinase still bound, per cent of control",PIP4K2B (human),34%
same,"kinase still bound, per cent of control",CLK4 (human),5.8%
same,"kinase still bound, per cent of control",MAPK15 (human),0.95%
same,"kinase still bound, per cent of control",CDK7 (human),3.2%
same,"kinase still bound, per cent of control",RIPK4 (human),5.5%
same,"kinase still bound, per cent of control",CLK1 (human),2.4%
same,"kinase still bound, per cent of control",CSNK2A1 (human),20%
same,"kinase still bound, per cent of control",DAPK2 (human),14%
same,"kinase still bound, per cent of control",PIM1 (human) [3],5.6%
same,"kinase still bound, per cent of control",CSNK2A2 (human),19%
same,"kinase still bound, per cent of control",RIOK2 (human),29%
same,"kinase still bound, per cent of control",MAP2K2 (human),33%
same,"kinase still bound, per cent of control",MAP2K3 (human),30%
same,"kinase still bound, per cent of control",DAPK3 (human),15%
same,"kinase still bound, per cent of control",[4],10%
same,"kinase still bound, per cent of control",MYLK3 (human),15%
same,"kinase still bound, per cent of control",ROCK2 (human),21%
same,IC50,PIM2 (human) [5],144 nM
same,IC50,PIM1 (human) [6],128 nM
